According to the supplement of paper PMC10307832:

Experiments:
Test in all cases: relative viability (nuclei count vs DMSO), 5 days (fraction); higher = more cells survive
Zebularine + Decitabine = compound: O=c1ncccn1[C@@H]1O[C@H](CO)[C@@H](O)[C@H]1O [Zebularine] + Nc1ncn([C@H]2C[C@H](O)[C@@H](CO)O2)c(=O)n1 [Decitabine] (partner 2 µM)
Procedure, shortened: (§1)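 Lung cancer cell lines in 1536-well plates were dosed by pin tool the day after seeding, either with one drug alone or with a fixed anchor-drug dose plus five library-drug doses (not always all listed) in √10 steps. After 5 days, cells were fixed and their nuclei stained in one step (final 0.05% Triton X-100, 1% formaldehyde, 1 ug/ml Hoechst), then counted on 4× images. Relative viability is the nuclei count in treated wells divided by that in vehicle wells. Values are medians of duplicate plates.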

BI-D1870 + Linsitinib = compound: CC(C)CCN1c2nc(Nc3cc(F)c(O)c(F)c3)ncc2N(C)C(=O)C1C [BI-D1870] + C[C@]1(O)C[C@@H](c2nc(-c3ccc4ccc(-c5ccccc5)nc4c3)c3c(N)nccn32)C1 [Linsitinib] (partner 1 µM)
Procedure, shortened: as §1

Zebularine + Palbociclib = compound: O=c1ncccn1[C@@H]1O[C@H](CO)[C@@H](O)[C@H]1O [Zebularine] + CC(=O)c1c(C)c2cnc(Nc3ccc(N4CCNCC4)cn3)nc2n(C2CCCC2)c1=O [Palbociclib] (partner 0.5 µM)
Procedure, shortened: as §1

BI-D1870 + Crizotinib = compound: CC(C)CCN1c2nc(Nc3cc(F)c(O)c(F)c3)ncc2N(C)C(=O)C1C [BI-D1870] + C[C@@H](Oc1cc(-c2cnn(C3CCNCC3)c2)cnc1N)c1c(Cl)ccc(F)c1Cl [Crizotinib] (partner 1 µM)
Procedure, shortened: as §1

Cell Line	relative viability (Zebularine + Decitabine; first compound 1 µM)	relative viability (Zebularine + Decitabine; first compound 3.162 µM)	relative viability (Zebularine + Decitabine; first compound 10 µM)	relative viability (Zebularine + Decitabine; first compound 31.62 µM)	relative viability (Zebularine + Decitabine; first compound 100 µM)	relative viability (BI-D1870 + Linsitinib; first compound 0.04 µM)	relative viability (BI-D1870 + Linsitinib; first compound 0.1265 µM)	relative viability (BI-D1870 + Linsitinib; first compound 0.4 µM)	relative viability (BI-D1870 + Linsitinib; first compound 1.265 µM)	relative viability (BI-D1870 + Linsitinib; first compound 4 µM)	relative viability (Zebularine + Palbociclib; first compound 1 µM)	relative viability (Zebularine + Palbociclib; first compound 3.162 µM)	relative viability (Zebularine + Palbociclib; first compound 10 µM)	relative viability (Zebularine + Palbociclib; first compound 31.62 µM)	relative viability (Zebularine + Palbociclib; first compound 100 µM)	relative viability (BI-D1870 + Crizotinib; first compound 0.04 µM)	relative viability (BI-D1870 + Crizotinib; first compound 0.1265 µM)	relative viability (BI-D1870 + Crizotinib; first compound 0.4 µM)	relative viability (BI-D1870 + Crizotinib; first compound 1.265 µM)	relative viability (BI-D1870 + Crizotinib; first compound 4 µM)
NCI-H3122	0.507	0.475	0.411	0.411	0.532	1.06	0.925	0.988	0.974	1.02	0.204	0.185	0.173	0.195	0.19	0.283	0.275	0.293	0.28	0.325
PC-3 [JPC-3]	0.781	0.817	0.755	0.842	0.659	0.959	0.913	0.956	1.02	0.897	0.537	0.535	0.507	0.605	0.514	1.01	0.898	1.05	1.05	0.97
PC-14	0.193	0.135	0.117	0.0981	0.0826	1.04	0.919	0.908	0.91	0.633	0.627	0.417	0.175	0.103	0.118	1.03	0.909	0.797	0.923	0.768
RERF-LC-KJ	0.828	0.733	0.587	0.85	0.751	0.919	0.882	0.842	0.814	0.812	1.09	1.01	0.871	1.3	1.24	0.892	0.853	0.847	0.857	0.792
SK-LU-1	0.583	0.652	0.478	0.675	0.495	1.33	0.993	1.09	1.05	0.597	0.417	0.408	0.347	0.38	0.356	1.14	0.81	0.88	0.859	0.315
SK-MES-1	0.442	0.397	0.321	0.286	0.261	1.06	1.05	1.02	0.902	0.705	0.346	0.359	0.341	0.328	0.272	1.09	0.88	0.864	0.78	0.569
SW 1573	0.525	0.424	0.341	0.582	0.555	0.768	0.756	0.89	0.771	0.63	0.451	0.435	–	0.391	0.38	1.01	0.808	0.876	0.905	0.597
